Measurements: US8604028B2, “Furopyridinyl-substituted 1,4-dihydropyridine derivatives and methods of use thereof” (Bayer Intellectual Property GmbH, priority 2009, dated 2013)

Molecular target: N-terminally His6-tagged recombinant kinase domain of the human c-Met (amino acids 960-1390) (Homo sapiens (Human), UniProt P08581)
Experiment: c-Met Receptor Tyrosine Kinase Homogeneous Time-Resolved Fluorescence Assay (Alternative Format)
Type: biochemical
Conditions: c-Met kinase inhibition, HTRF format, ATP 10 μM
Source text: c-Met Receptor Tyrosine Kinase Homogeneous Time-Resolved Fluorescence Assay (Alternative Format):
The N-terminally His6-tagged recombinant kinase domain of the human c-Met (amino acids 960-1390), expressed in insect cells (SF21) and purified by Ni-NTA affinity chromatography and consecutive size exclusion chromatography (Superdex 200), is used. Alternatively, commercially available c-Met (Millipore) can be used. As substrate for the kinase reaction, the biotinylated poly-Glu,Tyr (4:1) copolymer (#61GT0BLC, Cis Biointernational, Marcoule, France) is used.
For the assay, 50 nL of a 100-fold concentrated solution of the test compound in DMSO is pipetted into a black low-volume 384-well microtiter plate (Greiner Bio-One, Frickenhausen, Germany). […]
The resulting mixture is incubated for 1 h at 22° C. to allow the binding of the biotinylated phosphorylated peptide to the streptavidine-XLent and the PT66-Eu-chelate. Subsequently, the amount of phosphorylated substrate is evaluated by measurement of the resonance energy transfer from the PT66-Eu-chelate to the streptavidine-XLent. Therefore, the fluorescence emissions at 620 nm and 665 nm after excitation at 350 nm are measured in an HTRF reader, e.g. Rubystar (BMG Lab-technologies, Offenburg, Germany) or Viewlux (Perkin-Elmer). […]

Chain of N-terminally His6-tagged recombinant kinase domain of the human c-Met (amino acids 960-1390) (P08581 960-1390): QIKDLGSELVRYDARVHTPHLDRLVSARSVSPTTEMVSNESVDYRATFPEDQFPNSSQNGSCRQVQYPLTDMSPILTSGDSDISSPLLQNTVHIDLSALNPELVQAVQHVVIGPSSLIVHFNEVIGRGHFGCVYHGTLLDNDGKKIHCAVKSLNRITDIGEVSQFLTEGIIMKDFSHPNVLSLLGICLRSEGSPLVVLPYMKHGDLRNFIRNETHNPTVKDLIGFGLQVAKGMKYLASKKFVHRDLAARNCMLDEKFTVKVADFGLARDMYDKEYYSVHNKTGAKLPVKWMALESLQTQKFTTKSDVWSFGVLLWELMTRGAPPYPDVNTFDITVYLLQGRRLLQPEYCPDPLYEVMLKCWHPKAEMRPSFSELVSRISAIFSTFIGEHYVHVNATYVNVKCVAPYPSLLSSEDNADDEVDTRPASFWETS

- IC50: 1030 nM
Structure (SMILES): N#CC1=C(C(F)F)NC(C(F)F)=C(C#N)C1c1cc2c(N)nccc2o1 [Example 18]
